Patent publication US8822517B2, “Arylosulfonamides for the treatment of CNS diseases” (Adamed SP. Z O.O., priority 2010, dated 2014)
Where two headings read alike, the source gives them in different places.

Legend:
adrenergic α1 receptor = test: Binding assay α1 (non-selective), [3H]prazosin, rat cerebral cortex; settings: percent inhibition of control specific binding; compounds tested at 1×10^−6 M
In short: (§1)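 Scintillation counting detects receptor-bound radioligand. Compound tested at 1×10^−6 M.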

[1] = target: T1, serotoninergic 5-HT7 receptor (Homo sapiens, UniProt P34969); test: Cellular functional assay, serotoninergic 5-HT7 receptor (agonism/antagonism); assay type: cell-based; settings: for activation at 1 µM: read-out: 5-HT7-ag [%]; for inhibition at 1 µM: read-out: 5-HT7-antag. [%]
Procedure: (§2) The compounds were tested at the concentration of 1×10^−6M.
(§3) In the Tables ag refers to agonism, and antag to antagonism).

sigma σ receptor = test: Binding assay σ (non-selective), [3H]DTG, rat cerebral cortex; settings: percent inhibition of control specific binding; compounds tested at 1×10^−6 M
In short: as §1

[2] = target: T2, serotoninergic 5-HT1A receptor (Homo sapiens, UniProt P08908); test: Cellular functional assay, serotoninergic 5-HT1A receptor (agonism/antagonism); assay type: cell-based
T2 sequence (P08908 1-422): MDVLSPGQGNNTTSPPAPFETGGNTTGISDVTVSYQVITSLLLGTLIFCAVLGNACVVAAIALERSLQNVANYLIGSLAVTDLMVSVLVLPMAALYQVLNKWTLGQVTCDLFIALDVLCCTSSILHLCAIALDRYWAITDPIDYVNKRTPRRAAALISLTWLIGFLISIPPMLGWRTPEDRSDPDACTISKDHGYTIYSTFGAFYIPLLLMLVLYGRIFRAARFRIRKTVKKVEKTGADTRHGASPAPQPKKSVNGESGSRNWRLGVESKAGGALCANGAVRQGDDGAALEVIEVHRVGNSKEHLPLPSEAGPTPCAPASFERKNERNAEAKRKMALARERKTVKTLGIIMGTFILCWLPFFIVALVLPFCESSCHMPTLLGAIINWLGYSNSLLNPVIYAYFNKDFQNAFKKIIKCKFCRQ
Procedure: as §2, §3

[3] = target: T3, serotoninergic 5-HT6 receptor (Homo sapiens, UniProt P50406); test: Cellular functional assay, serotoninergic 5-HT6 receptor (agonism/antagonism); assay type: cell-based; settings: for activation at 1 µM: read-out: 5-HT6-ag [%]; for inhibition at 1 µM: read-out: 5-HT6-antag. [%]
Procedure: as §2, §3

[4] = target: T4, serotoninergic 5-HT2A receptor (Homo sapiens, UniProt P28223); test: Cellular functional assay, serotoninergic 5-HT2A receptor (agonism/antagonism); assay type: cell-based; settings: for activation at 1 µM: read-out: 5-HT2A -ag [%]; for inhibition at 1 µM: read-out: 5-HT2A -antag [%]
In short: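 Human receptors tested in cell-based functional format for both agonist and antagonist modes. Single compound concentration of 1×10^−6M.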

dopaminergic D2 receptor = dopaminergic D2 receptor (Homo sapiens, UniProt P14416); test: Binding assay D2S (h), [3H]methyl-spiperone, HEK-293 cells; design: expressed in transfected cells; host or cells: HEK-293 cells; settings: read-out: D2 [%]
In short: as §1

[5] = target: T3, serotoninergic 5-HT6 receptor; test: Binding assay 5-HT6 (h), [3H]LSD, CHO cells; design: expressed in transfected cells; host or cells: CHO cells; settings: read-out: 5-HT6
In short: as §1

[6] = target: T4, serotoninergic 5-HT2A receptor; test: Binding assay 5-HT2A (h), [3H]ketanserin, HEK-293 cells; design: expressed in transfected cells; host or cells: HEK-293 cells; settings: read-out: 5-HT2A
In short: as §1

muscarinic M3 receptor = target: T5, muscarinic M3 receptor (Homo sapiens, UniProt P20309); test: Binding assay M3 (h), [3H]4-DAMP, CHO cells; settings: read-out: M3 [%]
T5 construct: expressed in transfected cells; host or cells: CHO cells
In short: as §1

[7] = target: T1, serotoninergic 5-HT7 receptor; test: Binding assay 5-HT7 (h), [3H]LSD, CHO cells; design: expressed in transfected cells; host or cells: CHO cells; settings: read-out: 5-HT7
In short: as §1

[8] = target: T6, serotoninergic receptor 5-HT2C (Homo sapiens, UniProt P28335); test: Binding assay 5-HT2C (h), [3H]mesulergine, HEK-293 cells; settings: read-out: 5-HT2C [%]
T6 construct: expressed in transfected cells; host or cells: HEK-293 cells
T6 sequence (P28335 33-458): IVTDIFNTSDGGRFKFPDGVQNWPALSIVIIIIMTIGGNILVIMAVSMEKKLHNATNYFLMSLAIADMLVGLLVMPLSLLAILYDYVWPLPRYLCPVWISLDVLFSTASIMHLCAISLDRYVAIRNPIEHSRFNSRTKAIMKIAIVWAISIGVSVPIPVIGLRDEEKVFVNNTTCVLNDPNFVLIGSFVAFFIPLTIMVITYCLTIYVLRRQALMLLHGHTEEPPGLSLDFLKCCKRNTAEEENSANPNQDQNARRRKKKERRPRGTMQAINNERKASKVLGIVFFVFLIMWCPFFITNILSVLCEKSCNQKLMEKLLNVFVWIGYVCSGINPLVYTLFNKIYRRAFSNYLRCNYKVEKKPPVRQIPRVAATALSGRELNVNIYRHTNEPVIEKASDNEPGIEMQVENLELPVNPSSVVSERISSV
In short: as §1

[9] = agonist effect, percent of control specific agonist response, compounds tested at 1×10^−6M
[10] = CHO; read-out: 5-HT1A-antag. [%]
[11] = agonist effect, percent of control specific agonist response (100 nM 8-OH-DPAT for control); 1×10^−6 M; 5-HT1A (h), CHO cells; read-out: 5-HT1A-ag [%]

T1 sequence (P34969 whole entry): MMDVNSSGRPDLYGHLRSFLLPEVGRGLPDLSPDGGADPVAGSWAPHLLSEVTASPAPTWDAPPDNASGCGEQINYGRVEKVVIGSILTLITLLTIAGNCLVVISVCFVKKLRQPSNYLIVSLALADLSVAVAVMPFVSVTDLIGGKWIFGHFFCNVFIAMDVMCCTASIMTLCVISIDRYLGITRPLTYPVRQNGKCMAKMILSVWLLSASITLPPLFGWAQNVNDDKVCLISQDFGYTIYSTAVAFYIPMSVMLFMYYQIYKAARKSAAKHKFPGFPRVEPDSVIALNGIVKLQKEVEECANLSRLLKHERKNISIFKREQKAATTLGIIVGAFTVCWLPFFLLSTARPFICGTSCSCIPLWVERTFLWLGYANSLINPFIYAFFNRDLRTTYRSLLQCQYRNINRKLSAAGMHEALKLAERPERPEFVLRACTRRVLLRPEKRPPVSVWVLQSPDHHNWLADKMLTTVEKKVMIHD
Sequence of dopaminergic D2 receptor (P14416 1-414 isoform P14416-2): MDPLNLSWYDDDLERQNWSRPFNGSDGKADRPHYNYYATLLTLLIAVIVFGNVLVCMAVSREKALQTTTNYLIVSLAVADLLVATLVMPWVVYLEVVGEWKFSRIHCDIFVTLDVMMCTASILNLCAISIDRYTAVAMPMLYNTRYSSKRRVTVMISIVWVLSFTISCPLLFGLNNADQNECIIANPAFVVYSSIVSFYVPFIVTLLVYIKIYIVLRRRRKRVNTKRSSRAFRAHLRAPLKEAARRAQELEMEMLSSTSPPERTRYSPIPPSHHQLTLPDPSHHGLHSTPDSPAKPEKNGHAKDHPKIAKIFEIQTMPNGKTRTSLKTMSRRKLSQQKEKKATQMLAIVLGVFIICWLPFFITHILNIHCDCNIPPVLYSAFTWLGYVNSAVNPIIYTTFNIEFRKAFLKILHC
T5 sequence (P20309 whole entry): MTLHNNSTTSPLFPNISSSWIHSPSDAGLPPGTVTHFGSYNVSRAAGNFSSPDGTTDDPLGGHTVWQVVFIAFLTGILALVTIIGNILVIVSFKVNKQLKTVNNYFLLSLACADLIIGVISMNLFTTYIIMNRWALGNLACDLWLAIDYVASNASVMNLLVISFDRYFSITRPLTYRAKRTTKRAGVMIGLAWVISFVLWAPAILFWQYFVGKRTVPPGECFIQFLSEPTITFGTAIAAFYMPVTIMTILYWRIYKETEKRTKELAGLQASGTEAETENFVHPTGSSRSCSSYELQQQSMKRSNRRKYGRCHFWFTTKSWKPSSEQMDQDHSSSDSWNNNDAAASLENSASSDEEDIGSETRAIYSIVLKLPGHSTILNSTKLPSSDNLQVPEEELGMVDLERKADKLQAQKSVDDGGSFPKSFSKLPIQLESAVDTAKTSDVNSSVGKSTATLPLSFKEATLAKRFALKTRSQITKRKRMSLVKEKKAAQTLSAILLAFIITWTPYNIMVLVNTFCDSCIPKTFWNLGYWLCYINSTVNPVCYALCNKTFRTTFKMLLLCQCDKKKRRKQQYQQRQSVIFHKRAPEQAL
T3 sequence (P50406 whole entry): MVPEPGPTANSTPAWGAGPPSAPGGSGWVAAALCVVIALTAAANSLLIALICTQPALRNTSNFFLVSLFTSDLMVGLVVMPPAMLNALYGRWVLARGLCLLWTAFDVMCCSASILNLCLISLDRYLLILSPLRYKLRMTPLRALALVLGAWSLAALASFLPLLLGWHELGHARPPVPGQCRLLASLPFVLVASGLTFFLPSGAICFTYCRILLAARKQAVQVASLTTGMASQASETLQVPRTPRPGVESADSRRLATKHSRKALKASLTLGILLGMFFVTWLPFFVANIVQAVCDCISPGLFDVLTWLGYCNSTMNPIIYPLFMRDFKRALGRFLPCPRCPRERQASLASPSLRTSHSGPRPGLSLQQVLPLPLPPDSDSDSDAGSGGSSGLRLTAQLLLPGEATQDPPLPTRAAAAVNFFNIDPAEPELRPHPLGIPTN
T4 sequence (P28223 whole entry): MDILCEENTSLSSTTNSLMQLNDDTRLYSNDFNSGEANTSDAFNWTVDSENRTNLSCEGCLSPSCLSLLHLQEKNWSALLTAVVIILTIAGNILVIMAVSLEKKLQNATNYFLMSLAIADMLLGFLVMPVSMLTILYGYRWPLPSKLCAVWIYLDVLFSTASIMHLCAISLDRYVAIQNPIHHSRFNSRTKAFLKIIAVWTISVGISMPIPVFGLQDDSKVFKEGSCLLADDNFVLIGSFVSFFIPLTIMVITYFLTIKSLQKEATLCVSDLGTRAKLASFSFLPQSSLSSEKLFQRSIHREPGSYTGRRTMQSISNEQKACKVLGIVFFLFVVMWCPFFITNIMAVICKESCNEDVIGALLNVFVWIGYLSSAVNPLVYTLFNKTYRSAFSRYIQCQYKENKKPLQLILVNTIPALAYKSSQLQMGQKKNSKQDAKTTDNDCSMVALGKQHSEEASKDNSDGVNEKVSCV

Row | SMILES | α1 [%] (adrenergic α1 receptor) | activation at 1 µM [1] [%] | inhibition at 1 µM [1] [%] | σ [%] (sigma σ receptor) | activation at 1 µM ([2]; CHO, read-out: 5-HT1A-ag [%]) [%] | inhibition at 1 µM ([2]; CHO, read-out: 5-HT1A-antag. [%]) [%] | activation at 1 µM [3] [%] | inhibition at 1 µM [3] [%] | activation at 1 µM [4] [%] | inhibition at 1 µM [4] [%] | inhibition at 1 µM (dopaminergic D2 receptor) [%] | inhibition at 1 µM [5] [%] | inhibition at 1 µM [6] [%] | inhibition at 1 µM (muscarinic M3 receptor) [%] | inhibition at 1 µM [7] [%] | inhibition at 1 µM [8] [%] | activation at 1 µM [1, 9] [%] | inhibition at 1 µM [2, 10] [%] | activation at 1 µM [2, 11] [%] | activation at 1 µM [3, 9] [%]
1 | O=S(=O)(NCCCCN1CCN(c2nsc3ccccc23)CC1)c1ccc2ccccc2c1 [Compound 2, N-(4-(4-(1,2-Benzothiazol-3-yl)piperazin-1-yl)butyl)naphthalene-2-sulphonamide] | 97 | -1 | 80 | 65 | 47 | 18 | 2 | 28 | 2 | 102 | 98 | 97 | 100 | 17 | 97 | 89 | – | – | – | –
2 | Cc1cccc(S(=O)(=O)NCCCN2CCN(c3nsc4ccccc34)CC2)c1 [Compound 7, N-(3-(4-(1,2-Benzothiazol-3-yl)piperazin-1-yl)propyl)-3-methylbenzenesulphonamide] | 98 | – | 98 | 61 | – | – | – | 65 | 0 | 100 | 95 | 98 | 100 | 13 | 97 | 89 | -1 | 51 | 59 | 1
3 | O=S(=O)(NCCCCN1CCN(c2cccc3[nH]ccc23)CC1)c1ccc2ccccc2c1 [Compound 26, N-{4-[4-(1H-Indol-4-yl)piperazin-1-yl]butyl}naphthalene-2-sulphonamide] | 98 | – | 13 | 99 | – | – | – | – | -1 | 77 | 97 | 51 | 98 | 17 | 98 | 19 | 14 | 22 | 67 | –
4 | O=S(=O)(NCCCCN1CCN(c2cccc3[nH]ccc23)CC1)c1cccc(F)c1 [Compound 28, 3-Fluoro-N-{4-[4-(1H-indol-4-yl)piperazin-1-yl]butyl}benzenesulphonamide] | 92 | – | 23 | 84 | – | – | – | 53 | – | – | 98 | 98 | 89 | 50 | 92 | 6 | 4 | 27 | 63 | 0
5 | O=S(=O)(NCCCCN1CCN(c2cccc3[nH]ccc23)CC1)c1cc2ccccc2s1 [Compound 33, N-{4-[4-(1H-Indol-4-yl)piperazin-1-yl]butyl}-1-benzothiophene-2-sulphonamide] | 100 | – | 20 | 94 | – | – | – | – | -1 | 41 | 97 | 42 | 95 | 5 | 99 | 27 | 19 | 24 | 63 | –
6 | O=S(=O)(NCCCCN1CCN(c2cccc3[nH]ccc23)CC1)c1cccc(Cl)c1 [Compound 113, N-[4-[4-(1H-Indol-4-yl)piperazin-1-yl]butyl]-3-chlorobenzenesulphonamide] | 99 | – | 45 | 92 | – | – | – | – | – | – | 98 | 74 | 69 | 29 | 97 | 10 | 9 | 92 | 32 | –
7 | O=S(=O)(NCCCCN1CCN(c2cccc3[nH]ccc23)CC1)c1ccc2cc(Cl)ccc2c1 [Compound 358, 6-Chloro-N-[4-[4-(1H-indol-4-yl)piperazin-1-yl]butyl]naphthalene-2-sulphonamide] | 88 | – | 28 | 84 | – | – | – | – | -1 | 57 | 96 | 70 | 99 | 17 | 94 | 62 | 10 | 70 | 22 | –
8 | O=S(=O)(NCCCCN1CCN(c2cccc3[nH]ccc23)CC1)c1ccc(F)cc1 [Compound 359, 4-Fluoro-N-[4-[4-(1H-indol-4-yl)piperazin-1-yl]butyl]benzenesulphonamide] | 97 | – | 43 | 85 | – | – | – | – | – | – | 96 | 42 | 79 | 63 | 95 | 12 | 8 | 94 | 22 | –
9 | O=S(=O)(NCCCCN1CCN(c2cccc3[nH]ccc23)CC1)c1cc2ccc(Cl)cc2s1 [Compound 363, 6-Chloro-N-[4-[4-(1H-indol-4-yl)piperazin-1-yl]butyl]benzothiophene-2-sulphonamide] | 92 | – | 24 | 96 | – | – | – | – | -1 | 62 | 99 | 84 | 98 | 15 | 98 | 57 | 6 | 27 | 78 | –
10 | O=c1[nH]c2cccc(N3CCN(CCCNS(=O)(=O)c4ccc5ccccc5c4)CC3)c2[nH]1 [Compound 424, N-[3-[4-(2-oxo-1,3-dihydrobenzimidazol-4-yl)piperazin-1-yl]propyl]naphthalene-2-sulphonamide] | 93 | – | 43 | −3 | – | – | – | – | – | – | 97 | 69 | 66 | 7 | 95 | 8 | 18 | 75 | 23 | –
